Reference: US20240376101A1, “SUBSTITUTED 1,4-DIHYDRO-1,6-NAPHTHYRIDINE AMIDE AND USE THEREOF” (Tuojie Biotech (Shanghai) Co., Ltd., priority 2021, published 2024)
One block for each compound: values may come before it.

Experiments:
[1] = target: T1, mineralocorticoid receptors (Homo sapiens, UniProt P08235); assay: Assay for in-vitro antagonistic activity against mineralocorticoid receptors (Gal4-MR LBD luciferase reporter in HEK293T cells, 1 nM aldosterone); type: cell-based
T1 construct: expressed in transfected cells; host or cells: HEK293T
T1 sequence (P08235 726-964 limits assumed): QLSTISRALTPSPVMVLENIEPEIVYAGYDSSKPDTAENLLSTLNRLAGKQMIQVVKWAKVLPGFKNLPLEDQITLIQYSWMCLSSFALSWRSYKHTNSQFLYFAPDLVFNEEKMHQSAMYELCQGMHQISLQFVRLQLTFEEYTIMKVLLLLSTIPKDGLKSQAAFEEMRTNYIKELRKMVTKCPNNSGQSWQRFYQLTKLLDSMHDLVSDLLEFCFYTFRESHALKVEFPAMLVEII
Excerpt: In in-vitro activity assays of compounds in the disclosure, the characteristic of luciferase binding to the substrate to cause a chemiluminescence reaction can be utilized to transfect human embryonic kidney cells (HEK293T) with a plasmid comprising the mineralocorticoid receptor ligand binding domain (LBD) and fused with the Gal4 DNA-binding domain (DBD) and a firefly luciferase reporter gene plasmid under the control of Gal4 UAS (upstream activation sequence). The influence of the presence of stimulation or different stimuli on mineralocorticoid receptor activity is judged by the level of firefly luciferase activity.
Test Example 1: Assay for In-Vitro Antagonistic Activity Against Mineralocorticoid Receptors
All the compounds to be tested were serially diluted 3-fold from 10 mM with DMSO (Sigma, D8418), and 10 concentrations were obtained for each of the compounds.
The reference compound eplerenone was serially diluted 3-fold with DMSO to form 10 concentrations.
A 1000× positive control (10 mM eplerenone) and a 1000× negative control (100% DMSO) were prepared.
• 2.1. All cells were cultured as recommended by ATCC. HEK293T cells were passaged and plated when in the exponential growth phase. • 2.2. The old culture medium in the cell culture flask was discarded, and the cells were washed with PBS. • 2.3. A proper amount of TrypLE solution was added to the culture flask to digest the cells to separate them, and the digestion was stopped with a serum-containing complete culture medium. • 2.4. The cell suspension was centrifuged to make the cells settle. The cells were washed with PBS 2 times to remove phenol red and were then suspended with culture medium to a proper concentration (only cells with a survival rate of greater than 90% were used in the subsequent experiments). • 2.5. 6×10^6 HEK293T cells were spread on a 100 mm Petri dish and incubated in a 37° C., 5% CO2 incubator for 16 h. • 2.6. The cells were transfected with plasmids and then incubated in a 37° C., 5% CO2 incubator for another 5-6 h. • 2.7. 25 nL of compound dilution was transferred to a 384-well assay plate using Echo655. • 2.8. HEK293T cells were plated at a concentration of 17,000 cells/well in a 384-well plate, and meanwhile 1 nM aldosterone was added to each well. • 2.9. The cells were incubated in a 37° C., 5% CO2 incubator for 18-20 h. • 2.10. 25 μL of britelite+luciferase assay reagent was added to each well of the 384-well assay plate, and luminescence values were recorded on an Envision 2105 plate reader. • 2.11. The IC50 values of the compounds were obtained using the software Graphad 8.0 and a non-linear fitting equation.

[2] = Human liver microsome metabolism study; type: in vitro ADME; settings: human liver microsomes
Experimental: Test Example 2: Human Liver Microsome Metabolism Study
222.5 μL of human liver microsomes (protein concentration: 1 mg/mL) and 25 μL of NADPH ([…]) were added to an incubation plate and pre-heated for 10 min. 2.5 μL of control compound and test compound (100 μM) were added.
30-μL aliquots were taken from the reaction solution at 0.5, 5, 10, 15, 20, and 30 min. The reaction was stopped by adding 5 volumes of cold acetonitrile containing IS (100 nM alprazolam, 200 nM caffeine, and 100 nM tolbutamide). The reaction solution was centrifuged, and 100 μL of the supernatant was collected and mixed with 100 μL of ultrapure H2O before analysis by LC-MS/MS.
The slope value k was determined by linear regression of the natural logarithm of a curve of the parent drug remaining percentage versus incubation time.
The in-vitro half-life (in-vitro T1/2) was determined by the slope value:
Using the following equation (the average of repeated measurements), the in-vitro T½ (min) was converted to in-vitro intrinsic clearance (in-vitro CLint, in μL/min/mg protein): […]

[3] = tested on: db/db mice (idiopathic type II diabetes model mice); assay: Efficacy test with db/db mouse model of diabetic nephropathy; type: in vivo; settings: for UACR / Urine creatinine / Urine weight / mALB: Mean±SEM; for mALB compared to the model control group / urine albumin-to-creatinine ratio (UACR) compared to the model control group / urine amount compared to the model control group: after 4 weeks of administration, in words
Experimental: Test Example 3: Efficacy Test with db/db Mouse Model of Diabetic Nephropathy
Proper amounts of compound 2-2 and finerenone were taken and separately mixed with a 0.5% hydroxyethyl cellulose solution (Tylose MH300) to form suspensions.
30 db/db mice (idiopathic type II diabetes model mice) were selected and divided into a model control group, a positive control group, and an administration group, and 10 db/m mice were selected as a control group.
The mice were dosed by oral gavage (i.g) once daily over 4 consecutive weeks. The dosing regimen is shown in detail in Table 4.
Urine albumin was used as a main measure. The data obtained were analyzed statistically using EXCEL and IBM SPSS Statistics 22.0.
All metrology data are expressed as Mean±SEM s. The parameters before and after dosing were plotted for the different groups of animals using the software Graph Pad Prism 8. Data were analyzed using the statistical software SPSS 22.0. A Levene's test of homogeneity of variance was performed on the parameters. When the variance was homogenous (P≥0.05), the Dunnett's & LSD method from the one-way analysis of variance (ANOVA) was used to compare the differences between the groups. When the variance was not homogenous (P<0.05), the Mann-Whitney U test (the M-W method) from the Kruskal-Wallis H test (the K-W method) was used to compare the differences between the groups. For animal survival, the log-rank test from the product-limit method (the K-M method) was used to compare the differences between the groups.

[4] = 15 mg/kg i.g. once daily, 4 weeks

SMILES: COc1cc(C#N)ccc1C1C(C(N)=O)=C(C)Nc2c(C)cnc(OCCSC)c21 (centres unmarked) [Compound 1]
IC50 [1]: 0.016 µM

SMILES: CCOc1nc(Cl)cc2c1C(c1ccc(C#N)cc1OC)C(C(N)=O)=C(C)N2 (centres unmarked) [Compound 5]
IC50 [1]: 0.005 µM

SMILES: CCOc1ncc(C)c2c1C(c1cc(C)c(C#N)cc1OC)C(C(N)=O)=C(C)N2 (centres unmarked) [Compound 6]
IC50 [1]: 0.01 µM

SMILES: [2H]C([2H])([2H])C([2H])([2H])Oc1ncc(C)c2c1C(c1ccc(C#N)cc1OC)C(C(N)=O)=C(C)N2 (centres unmarked) [Compound 3]
IC50 [1]: 0.017 µM

More lines, main results first:

IC50 [1]: 0.011 µM
SMILES: CCOc1ncc(Cl)c2c1C(c1ccc(C#N)cc1OC)C(C(N)=O)=C(C)N2 (centres unmarked) [Compound 4]

Remaining amount % ([2]; 0.5 min): 100.00%
Remaining amount % ([2]; 5 min): 67.31%
Remaining amount % ([2]; 10 min): 42.44%
Remaining amount % ([2]; 15 min): 24.78%
Remaining amount % ([2]; 20 min): 16.62%
Remaining amount % ([2]; 30 min): 7.44%
half-life at 1 μM ([2]; in-vitro half-life): 7.4 min
microsomal CLint at 1 μM ([2]; in-vitro intrinsic clearance): 93.7 µL/min/mg
IC50 [1]: 0.013 µM
SMILES: CCOc1ncc(C)c2c1[C@H](c1ccc(C#N)cc1OC)C(C(N)=O)=C(C)N2 [Finerenone]
UACR ([3]; 0 weeks (before dosing)): 5538.19 µg/mg
Urine creatinine ([3]; 0 weeks (before dosing)): 0.37 μmol/24 h
Urine weight ([3]; 0 weeks (before dosing)): 2.86 mL
mALB ([3]; 0 weeks (before dosing)): 226.68 μg/24 h
UACR [3, 4]: 4294.14 µg/mg
Urine creatinine [3, 4]: 2.11 μmol/24 h
Urine weight [3, 4]: 11.96 mL
mALB [3, 4]: 1,013.76 μg/24 h
mALB compared to the model control group [3]: tended to be lower than those in the model control group
urine albumin-to-creatinine ratio (UACR) compared to the model control group [3]: decreased somewhat but is not significantly different from that of the mice in the model group
urine amount compared to the model control group [3]: tended to be lower than those in the model control group

IC50 [1]: 0.007 µM
SMILES: [2H]C([2H])([2H])Oc1cc(C#N)ccc1C1C(C(N)=O)=C(C)Nc2c(C)cnc(OCC)c21 (centres unmarked) [Compound 2]
mALB compared to the model control group [3]: tended to be lower than those in the model control group
urine albumin-to-creatinine ratio (UACR) compared to the model control group [3]: statistically significantly smaller than that of the mice in the model control group (P<0.01)
urine amount compared to the model control group [3]: tended to be lower than those in the model control group
